In patent EP0525063B1, “Use of specific fatty acids in the manufacture of a medicament for their Iontophoresis delivery” (priority 1990, dated 1991):
“And” between values parts separate entries of the source, which are not always exact repeats. Equal values may be shown once. Where a name gives a salt, the structure may show the parent alone. Read-outs that look alike come from different tables or passages of the source.

Legend:
[1] = Description: (§1) Either pig skin or human cadaver skin was used. It was placed in the cell dermal side down.
(§2) The receptor solution completely filled the receptor compartment.
(§3) All skin was stored frozen.
(§4) Each experiment consisted of three phases totaling 66 hours. […]
(§5) The injection volume was 10 »l.

Remark: listed apart in the source
[2] = Iontophoretic drug delivery through skin in vertical flow-through diffusion cell, HPLC of receptor solution (human skin); format: in vitro ADME; conditions: oxymorphone, 0 mg/ml oleic acid (control)
Description: as §1, §2, §3, §4, §5
Tests with enhancer may be compared to the control delivery rate with no oleic acid and using human skin. Tests summarized in Table 4 were done using oxymorphone in the donor compartment.

[3] = delivery of HM-HCl 0.1M, enhancer 100 mg/ml (10.0%), E/W 60/40, current 1 mA

With `CCCCCCCCCC(=O)O` [Capric acid, decanoic acid] the “Enhancement Factor” value [1, 3] was 3.9.
In the case of `CCCCCCCC(=O)O` [Caprylic acid, octanoic acid], the “Enhancement Factor” value ([1]; delivery of HM-HCl 0.1M, enhancer 100 mg/ml (10.0%), E/W 48/52, current 1 mA) is reported as 3.6.
In the case of `CCCCCCCCCCCC(=O)O` [Lauric acid, dodecanoic acid], the “Steady State Delivery Rate ± sd” value [1] is reported as 4838 ± 766 µg/h and the “Enhancement Factor” value [1, 3] is reported as 4.0.
In the case of `CCCCCCCC/C=C\CCCCCCCC(=O)O` [Oleic acid, cis-9-octadecenoic acid], the “Enhancement Factor” value ([1]; oleic acid 50 mg/ml (5%), solvent PG/E/W (30/45/20)) is reported as 4.3, the “Enhancement Factor” value ([1]; oleic acid 50 mg/ml (5%), solvent PG/E/W (65/20/10)) is reported as 2.5 and the “steady state (phase II) delivery rate” value (Scheme B: 1% oleic acid + drug in passive phase I, phase II 0.1 M HM.HCl in DI W without enhancer, current on, pig skin) is reported as 2163 ± 354 »g/hr. The “delivery by the end of phase I” value (Scheme B: passive phase I (18 h, current off), 1% oleic acid + 0.1 M HM.HCl in E/W 67/33, pig skin) was “approximately 1800 »g/hr”, the “Enhancement Factor” value (delivery of HM-HCl 0.1M, enhancer 10 mg/ml (1.0%), E/W 67/33, current 1 mA) was 4.3 and the “Enhancement Factor” value (delivery of Oxy-HCl 0.1M, enhancer 5 mg/ml (0.5%), E/W 67/33, current 1 mA, ratio of steady state rates with and without enhancer) was 4.7. The “Enhancement Factor” value (delivery of oxymorphone-HCl, oleic acid 0.25 mg/ml (0.025%), E/W 48/52, 1 mA, pig skin) was 0, the “Enhancement Factor” value (delivery of oxymorphone-HCl, oleic acid 0.50 mg/ml (0.050%), E/W 48/52, 1 mA, pig skin) was 1.3 and the “Enhancement Factor” value (delivery of oxymorphone-HCl, oleic acid 1.0 mg/ml (0.10%), E/W 52/48, 1 mA, pig skin) was 1.9. For the same molecule, the “Enhancement Factor” value (delivery of oxymorphone-HCl, oleic acid 2.0 mg/ml (0.20%), E/W 56/44, 1 mA, pig skin) was 3.2, the “Enhancement Factor” value (delivery of oxymorphone-HCl, oleic acid 2.5 mg/ml (0.25%), E/W 56/44, 1 mA, pig skin, two identical tests on different days) was 4.2 and 4.5 and the “Enhancement Factor” value (delivery of oxymorphone-HCl, oleic acid 5.0 mg/ml (0.50%), E/W 67/33, 1 mA, pig skin) was 4.7.
In the case of `CN1CC[C@]23c4c5ccc(O)c4O[C@H]2C(=O)CC[C@@]3(O)[C@H]1C5` [Oxy-HCl, oxymorphone hydrochloride], the “Steady State Delivery Rate ± sd” value ([1]; Oxy-HCl 0.1M, no enhancer, E/W 67/33, current 1 mA) is reported as 1202 ± 133 µg/h, the “typical iontophoretic steady state delivery rate” value ([1]; current of 1 mA, without the addition of a fatty acid, human skin or pig skin) is reported as “about 1200 »g/hr” and the “Steady State Delivery Rate ± sd” value ([2]; current 0 mA) is reported as 27 ± 25 µg/h. For the same molecule, the “Steady State Delivery Rate ± sd” value ([2]; current 0.25 mA) was 228 ± 55 µg/h, the “Steady State Delivery Rate ± sd” value ([2]; current 0.50 mA) was 542 ± 62 µg/h and the “Steady State Delivery Rate ± sd” value ([2]; current 0.75 mA) was 910 ± 117 µg/h. The “Steady State Delivery Rate ± sd” value ([2]; current 1.0 mA) was 1024 ± 276 µg/h.
